Source: PubChem BioAssay (NCI)
Values joined by “and” are separate entries in the source; they are usually repeats but may differ in a detail not shown here. Identical values can stand only once.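 These data come from cells grown in 96-well plates and exposed to compound for 48 hours at five concentrations. GI50: concentration for 50% inhibition of growth. TGI denotes the concentration required for complete inhibition of growth.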

Key:
Experiment in all cases: inhibition of tumour cell growth, NCI panel, 48 h
A549 NSCLC = test system: A549 NSCLC
COLO 205 colon = test system: COLO 205 colon
DU-145 prostate = test system: DU-145 prostate
HCT-15 colon = test system: HCT-15 colon
IGROV1 ovarian = test system: IGROV1 ovarian
MCF7 breast = test system: MCF7 breast
MDA-MB-435 = test system: MDA-MB-435
MOLT-4 leukemia = test system: MOLT-4 leukemia
SF-295 CNS = test system: SF-295 CNS
SN12C renal = test system: SN12C renal

Compound	GI50 (A549 NSCLC)	TGI (A549 NSCLC)	GI50 (COLO 205 colon)	TGI (COLO 205 colon)	GI50 (DU-145 prostate)	TGI (DU-145 prostate)	GI50 (HCT-15 colon)	TGI (HCT-15 colon)	GI50 (IGROV1 ovarian)	TGI (IGROV1 ovarian)	GI50 (MCF7 breast)	TGI (MCF7 breast)	GI50 (MDA-MB-435)	TGI (MDA-MB-435)	GI50 (MOLT-4 leukemia)	TGI (MOLT-4 leukemia)	GI50 (SF-295 CNS)	TGI (SF-295 CNS)	GI50 (SN12C renal)	TGI (SN12C renal)
CCC(=O)Nc1ccccc1C#C/C=C\C#Cc1ccccc1C(F)(F)F	2.53 µM	> 32.6 µM	4.59 µM	> 25.9 µM	2.28 µM	22.3 µM	3.9 µM	> 50 µM	3.39 µM	> 18.9 µM	2.61 µM	> 36.1 µM	0.851 µM	1.84 µM	4.11 µM	> 23.3 µM	1 µM	5.34 µM	2.22 µM	> 50 µM
O=C1C(=O)c2ccccc2C(O)=C1CCCc1ccc(C2CCCCCC2)cc1	0.664 µM	17.4 µM	4.9 µM	20 µM	0.72 µM	34.3 µM	0.539 µM	> 85.9 µM	0.486 µM	5.89 µM	0.513 µM	> 49 µM	0.608 µM	48.2 µM	0.618 µM	> 32.1 µM	0.558 µM	30.2 µM	2.12 µM	> 100 µM
Oc1cccc(/C=N/Nc2nnc(N/N=C/c3cccc(O)c3)c3ccccc23)c1	–	57.5 µM	–	> 100 µM	–	66 µM	–	39 µM	–	47.7 µM	–	> 100 µM	–	81 µM	–	6.43 µM	–	31.8 µM	–	30.5 µM
O=c1c(Br)cc2c(-c3ccccc3)c3cc(Br)c(O)c(Br)c3oc-2c1Br	–	> 100 µM	–	> 100 µM	–	> 100 µM	–	> 100 µM	–	> 100 µM	–	> 100 µM	–	> 100 µM	–	> 100 µM	–	> 100 µM	–	> 100 µM
COc1ccc(/C=C2\CN(Cc3cn(CCNc4ccnc5cc(Cl)ccc45)nn3)C/C(=C\c3ccc(OC)c(OC)c3)C2=O)cc1OC	4.73 µM	40.4 µM	1.99 µM	3.9 µM	3.48 µM	11 µM	6.87 µM	38.7 µM	2.67 µM	7.09 µM	3.3 µM	16 µM	3.01 µM	19.1 µM	3.5 µM	40.2 µM	2.41 µM	6.1 µM	2.36 µM	6.79 µM
COc1c(-c2ccc(O)c(O)c2)oc2c(O)c(O)cc(O)c2c1=O	–	> 100 µM	–	> 100 µM	–	> 100 µM	–	> 100 µM	–	70.7 µM	–	76.1 µM	–	> 100 µM	–	73.8 µM	–	> 100 µM	–	31 µM
CCCCCCCCCCCCCCCC(=O)OCC1OC(OC)C2NP(=O)(N(CCCl)CCCl)OC1C2O (stereo not given)	–	39.9 µM	–	13.5 µM	–	54.8 µM	–	14.2 µM	–	> 54.9 µM	–	20.5 µM	–	21.7 µM	–	0.968 µM	–	> 41.8 µM	–	24.8 µM
Cc1cc(C(=O)NC(CCC(=O)O)C(=O)O)sc1CCC1CNc2nc(N)[nH]c(=O)c2C1 (stereo not given)	0.0437 µM and 0.156 µM	> 100 µM	0.0341 µM and 0.0509 µM	> 100 µM	< 0.0158 µM and 0.0407 µM	> 100 µM	0.0502 µM and 0.33 µM	> 100 µM	0.0464 µM and 0.192 µM	> 100 µM	< 0.0114 µM and 0.0346 µM	> 100 µM	0.0354 µM and 0.0542 µM	> 100 µM	0.0297 µM and 0.0453 µM	> 100 µM	0.0537 µM and 0.0973 µM	> 100 µM	0.0315 µM and 0.0482 µM	> 100 µM
CN(C)CC(C(=O)Cc1ccccc1)c1ccccc1 (stereo not given)	16.7 µM	35.5 µM	2.3 µM	5.04 µM	1.73 µM	4.72 µM	1.76 µM	3.95 µM	11.6 µM	26.4 µM	0.369 µM	1.67 µM	3.09 µM	12.2 µM	3.02 µM	> 100 µM	11.3 µM	27.8 µM	3.04 µM	11 µM
CN1CCN(Cc2ccc(NC(=O)c3cncc(C#Cc4cncc5nccnc45)c3)cc2C(F)(F)F)CC1	4.3 µM	11.4 µM	0.904 µM	7.11 µM	3.22 µM	9.6 µM	2.51 µM	12.9 µM	1.52 µM	7.07 µM	2.35 µM	10.1 µM	1.34 µM	7.3 µM	1.89 µM	13.2 µM	7.05 µM	14.4 µM	1.97 µM	13.9 µM
C[C@]12CC[C@H]3[C@@H](C[C@@H]4SC(Nc5ccccc5)=N[C@@]45CC(O)CC[C@]35C)[C@@H]1CCC2O (stereo not given in full)	2.41 µM	6.02 µM	2.45 µM	5.61 µM	1.7 µM	3.62 µM	1.6 µM	5.15 µM	2.78 µM	7.85 µM	1.8 µM	4.73 µM	2.25 µM	7.03 µM	1.87 µM	8.07 µM	1.06 µM	2.98 µM	1.65 µM	3.28 µM
COc1cc(C2C3=C(COC3=O)Nc3c2ccc2c3CCCC2)cc2c1OCO2 (stereo not given)	0.0444 µM	> 89.3 µM	0.0322 µM	0.0942 µM	0.0416 µM	0.505 µM	0.0432 µM	> 100 µM	0.0765 µM	> 100 µM	0.0352 µM	8.74 µM	0.0199 µM	0.0497 µM	0.13 µM	> 42.4 µM	0.0323 µM	35.5 µM	0.0723 µM	> 100 µM
CCCCNC(=O)Oc1ccc(/C(=C(/C)Cc2ccc(OC)cc2)c2ccc(OCCN3CCCC3)cc2)cc1	1.95 µM	3.8 µM	1.83 µM	3.57 µM	2.29 µM	5.44 µM	1.5 µM	3.13 µM	2.11 µM	4.52 µM	0.655 µM	2.51 µM	1.63 µM	3.1 µM	1.98 µM	7.72 µM	1.65 µM	3.14 µM	1.77 µM	3.27 µM
O=[n+]1c2ccccc2n([O-])c2cc(Cl)ccc21	3.17 µM	22.9 µM	4.65 µM	18.2 µM	11.3 µM	24.1 µM	2.55 µM	8.59 µM	1.86 µM	6.95 µM	3.72 µM	16.1 µM	11.3 µM	23.7 µM	0.385 µM	2.03 µM	4.32 µM	20.9 µM	3.52 µM	14.1 µM
CC(/C=C/c1ccccc1)=N\NC(N)=S	–	> 100 µM	–	44.2 µM	–	> 100 µM	–	> 100 µM	–	> 100 µM	–	> 100 µM	–	84.4 µM	–	> 100 µM	–	61.2 µM	–	> 100 µM
COc1cc2ncnc(Nc3ccc4c(cnn4Cc4ccccc4)c3)c2cc1OC	> 17.9 µM	> 25 µM	> 25 µM	> 25 µM	> 25 µM	> 25 µM	> 17.4 µM	> 25 µM	4.83 µM	> 25 µM	> 25 µM	> 25 µM	> 25 µM	> 25 µM	13.5 µM	> 25 µM	> 20.2 µM	> 25 µM	> 17 µM	> 25 µM
C/C=C/[C@H]1O[C@@H]2C(=C[C@H]1O)C(=O)O[C@H]2C	19 µM	42.3 µM	4.02 µM	> 32.1 µM	5.76 µM	21.4 µM	15.7 µM	34.7 µM	17.1 µM	> 59.9 µM	31.2 µM	98 µM	21.9 µM	43.5 µM	2.77 µM	10.5 µM	> 82.1 µM	> 100 µM	16.6 µM	33.6 µM
